Broadly, the IC50 is the midpoint of a concentration-inhibition curve. High values mean weaker potency in that assay, low ones greater potency in that assay.

*1 amine or outer side, *2 acyl side, *3 side chain or, on linkers, in order; H or OH if unused. Where a SMILES comes first, the peptide text is derived from it. Bridges are numbered along the chain shown (N, C = ends). Roman numbers before positions name the chains, in order. [ ]: non-standard residue; d: D form. The star is where a group is joined. dAla(N-(6-guanidinohexyl)) = C[C@@H](NCCCCCCNC(=N)N)C(=O)O; DOTA = O=C(O)CN1CCN(CC(=O)O)CCN(CC(=O)*)CCN(CC(=O)O)CC1; X6 = C[C@H](C(=O)[*:2])N(CCCCCCCNC(=O)c1ccc(F)cc1)[*:1]; X14 = C[C@H](C(=O)[*:2])N(CCCCCNC(=O)c1ccc(F)cc1)[*:1]; X8 = C[C@H](C(=O)[*:2])N(CCCCCCNC(=O)c1ccc(F)cc1)[*:1]; X5 = C[C@H](C(=O)[*:2])N(CCCCCCNCc1cccc2ccccc12)[*:1]; X9 = C[C@H](C(=O)[*:2])N(CCCCNC(=O)c1ccc(F)cc1)[*:1]; X4 = C[C@H](C(=O)[*:2])N(CCCCCCNCc1ccccc1)[*:1]; X1 = C[C@@H](C(=O)[*:2])N(CCCCCCNC(=N)N)[*:1]; X7 = CC(=O)NCCCCCCN([C@H](C)C(=O)[*:2])[*:1]; X3 = C[C@H](C(=O)[*:2])N(CCCCCCN[*:3])[*:1]; X10 = C[C@@H](C(=O)[*:2])N(CCCCCCN)[*:1]; X12 = C[C@H](C(=O)[*:2])N(CCCCCCN)[*:1]; X2 = C[C@H](C(=O)[*:2])N(CCCCCCCN)[*:1]; X13 = C[C@H](C(=O)[*:2])N(CCCCCN)[*:1]; 2Nal = N[C@@H](Cc1ccc2ccccc2c1)C(=O)O; Suberoyl = O=C(CCCCCCC(=O)[*:2])[*:1]; X11 = C[C@H](C(=O)[*:2])N(CCCCN)[*:1]; Adipoyl = O=C(CCCCC(=O)[*:2])[*:1]; Gly(N-(CH2)6NH2) = NCCCCCCNCC(=O)O; Suc = O=C(CCC(=O)[*:2])[*:1]

The first test deals with T1, CXCR4 receptor (Homo sapiens, UniProt P61073).
T1 construct: endogenous in cells; host or cells: Jurkat cells
T1 sequence (P61073 whole entry): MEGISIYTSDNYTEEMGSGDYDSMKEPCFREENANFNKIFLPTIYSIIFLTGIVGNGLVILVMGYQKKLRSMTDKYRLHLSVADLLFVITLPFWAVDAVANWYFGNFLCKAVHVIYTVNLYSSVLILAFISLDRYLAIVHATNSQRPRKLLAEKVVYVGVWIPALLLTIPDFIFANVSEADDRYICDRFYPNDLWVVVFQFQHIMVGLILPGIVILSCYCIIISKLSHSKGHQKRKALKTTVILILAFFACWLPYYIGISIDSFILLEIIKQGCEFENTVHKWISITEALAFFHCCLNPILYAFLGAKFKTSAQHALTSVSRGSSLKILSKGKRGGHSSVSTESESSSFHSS
The experiment in a line: Receptor binding assay (competition with 125I tracer on Jurkat cells). To be noted: tracer cyclo(-D-Tyr^1 [^125I]-Arg^2-Arg^3-Nal^4-Gly^5), 2 h at room temperature, D-Ala N-hexyl series, R varied. The procedure: For receptor binding assays cells were resuspended in PBS/0.2 % BSA. A total of 200 µl of the suspension containing 400,000 Jurkat cells were incubated with 25 µl of the tracer solution (containing 100000cpm / 25µl, approx. 0.1 nM) and 25 µl of the diluent or the competitor at different concentrations. For determination of IC50 values, cyclo(-D-Tyr^1 [^125I]-Arg^2-Arg^3-Nal^4-Gly^5) was used as a tracer. Nonspecific binding was determined in the presence of 1 µM cold cyclo(-D-Tyr^1[^127I]-Arg^2-Arg^3-Nal^4-Gly^5). After shaking for 2 h at room temperature, the incubation was terminated by centrifugation at 2000 rpm for 5 min. Cell pellets were washed once with 400µl cold PBS followed by a second centrifugation step. Cell bound radioactivity was determined by using a gamma counter. Experiments were repeated 2-3 times in triplicates. IC50 values of the compounds were calculated by nonlinear regression using GraphPad Prism (GraphPad Prism 4.0 Software, Inc., San Diego, CA, USA). Each data point is the average of three determinations.
For the molecule `C[C@@H]1C(=O)N[C@@H](CCCNC(=N)N)C(=O)N[C@@H](Cc2ccc3ccccc3c2)C(=O)NCC(=O)N[C@H](Cc2ccc(O)cc2)C(=O)N1CCCCCCN` [ya(Hex)RNalG] (cyclo([2Nal]G[dY][X12]R)), the IC50 turned out to be 0.3 ± 0.2 nM. On the same count and under the same terms, the value for `C[C@@H]1C(=O)N[C@@H](CCCNC(=N)N)C(=O)N[C@@H](Cc2ccc3ccccc3c2)C(=O)NCC(=O)N[C@H](Cc2ccc(O)cc2)C(=O)N1CCCCCCNC(=O)CN1CCN(CC(=O)O)CCN(CC(=O)O)CCN(CC(=O)O)CC1` [ya(Hex,DOTA) RNalG, cyclo(-D-Tyr-(α-6-aminohexyl, DOTA)-D-Ala-R-Nal-G)] (cyclo([2Nal]G[dY][X3](DOTA)R)) was 509.7 ± 0.2 nM; that for `CC(=O)NCCCCCCN1C(=O)[C@@H](Cc2ccc(O)cc2)NC(=O)CNC(=O)[C@H](Cc2ccc3ccccc3c2)NC(=O)[C@H](CCCNC(=N)N)NC(=O)[C@H]1C` [ya(Hex,Ac) RNalG, cyclo(-D-Tyr-(α-6-aminohexyl, Ac)-D-Ala-R-Nal-G)] (cyclo([2Nal]G[dY][X7]R)) was 44.1 ± 6.2 nM.

Consider `C[C@@H]1C(=O)N[C@@H](CCCNC(=N)N)C(=O)N[C@@H](Cc2ccc3ccccc3c2)C(=O)NCC(=O)N[C@H](Cc2ccc(O)cc2)C(=O)N1CCCCCCNC(=N)N` [ya(Hex, Gua) RNalG, cyclo(-D-Tyr-(α-6-guanidinohexyl)-D-Ala-R-Nal-G)] (cyclo([dY][dAla(N-(6-guanidinohexyl))]R[2Nal]G)), for which the concentration for half-maximal inhibition (IC50) was determined as 0.04 ± 0.02 nM. In turn, `C[C@@H]1C(=O)N[C@@H](CCCNC(=N)N)C(=O)N[C@@H](Cc2ccc3ccccc3c2)C(=O)NCC(=O)N[C@H](Cc2ccc(O)cc2)C(=O)N1CCCCCCNC(=O)c1ccc(F)cc1` [ya(Hex, FBz) RNalG, cyclo(-D-Tyr-(α-6-aminohexyl, 4-fluorobenzoic acid)-D-Ala-R-Nal-G)] (cyclo([2Nal]G[dY][X8]R)) gave a concentration for half-maximal inhibition (IC50) of 21.4 ± 5.8 nM. The molecule `C[C@@H]1C(=O)N[C@@H](CCCNC(=N)N)C(=O)N[C@@H](Cc2ccc3ccccc3c2)C(=O)NCC(=O)N[C@H](Cc2ccc(O)cc2)C(=O)N1CCCCCCNCc1cccc2ccccc12` [ya(Hex,1 Nap) RNalG, cyclo(-D-Tyr-(α-6-aminohexyl,1-naphthylmethyl)-D-Ala-R-Nal-G)] (cyclo([2Nal]G[dY][X5]R)) showed a half-inhibitory concentration (IC50) of 5.1 ± 1.3 nM. Still for that read-out and setting: the value for `C[C@@H]1C(=O)N[C@@H](CCCNC(=N)N)C(=O)N[C@@H](Cc2ccc3ccccc3c2)C(=O)NCC(=O)N[C@H](Cc2ccc(O)cc2)C(=O)N1CCCCCCNCc1ccccc1` [ya(Hex, Bz) RNalG, cyclo(-D-Tyr-(α-6-aminohexyl, benzyl)-D-Ala-R-Nal-G)] (cyclo([2Nal]G[dY][X4]R)) was 4.2 ± 1.4 nM.

The same test, now with this note: tracer cyclo(-D-Tyr^1 [^125I]-Arg^2-Arg^3-Nal^4-Gly^5), 2 h at room temperature, Gly analogue.
The molecule `N=C(N)NCCC[C@@H]1NC(=O)CN(CCCCCCN)C(=O)[C@@H](Cc2ccc(O)cc2)NC(=O)CNC(=O)[C@H](Cc2ccc3ccccc3c2)NC1=O` [yG(Hex)RNalG, cyclo(-D-Tyr-(α-6-aminohexyl)-G-R-Nal-G)] (cyclo([2Nal]G[dY][Gly(N-(CH2)6NH2)]R)) showed a half-maximal inhibitory concentration (IC50) of 104 nM.

Staying with this test, now noted: tracer cyclo(-D-Tyr^1 [^125I]-Arg^2-Arg^3-Nal^4-Gly^5), 2 h at room temperature, L-Ala series.
In turn, `C[C@H]1C(=O)N[C@@H](CCCNC(=N)N)C(=O)N[C@@H](Cc2ccc3ccccc3c2)C(=O)NCC(=O)N[C@H](Cc2ccc(O)cc2)C(=O)N1CCCCCCN` [yA(Hex)RNalG] (cyclo([2Nal]G[dY][X10]R)) displayed a half-maximal inhibitory concentration (IC50) of 94.2 ± 38 nM. Take `C[C@H]1C(=O)N[C@@H](CCCNC(=N)N)C(=O)N[C@@H](Cc2ccc3ccccc3c2)C(=O)NCC(=O)N[C@H](Cc2ccc(O)cc2)C(=O)N1CCCCCCNC(=N)N` [yA(Hex,Gua)RNa IG, cyclo(-D-Tyr-(α-6-guanidinohexyl)-L-Ala-R-Nal-G)] (cyclo([2Nal]G[dY][X1]R)): the IC50 was 4.4 ± 0.3 nM.

Still in this test, the particulars now being: tracer cyclo(-D-Tyr^1 [^125I]-Arg^2-Arg^3-Nal^4-Gly^5), 2 h at room temperature, alkyl chain length n varied.
Molecule `C[C@@H]1C(=O)N[C@@H](CCCNC(=N)N)C(=O)N[C@@H](Cc2ccc3ccccc3c2)C(=O)NCC(=O)N[C@H](Cc2ccc(O)cc2)C(=O)N1CCCCCCCN` [ya(Hept)RNalG, cyclo(-D-Tyr-(α-7-aminoheptyl)-D-Ala-R-Nal-G)] (cyclo([2Nal]G[dY][X2]R)) yielded a half-maximal inhibitory concentration (IC50) of 2.4 ± 0.8 nM. Consider `C[C@@H]1C(=O)N[C@@H](CCCNC(=N)N)C(=O)N[C@@H](Cc2ccc3ccccc3c2)C(=O)NCC(=O)N[C@H](Cc2ccc(O)cc2)C(=O)N1CCCCCNC(=O)c1ccc(F)cc1` [ya(Pent, FBz)RNalG, cyclo(-D-Tyr-(α-5-aminopentyl, 4-fluorobenzoic acid)-D-Ala-R-Nal-G)] (cyclo([2Nal]G[dY][X14]R)), for which the IC50 is 34.2 ± 9.3 nM.

In turn, `C[C@@H]1C(=O)N[C@@H](CCCNC(=N)N)C(=O)N[C@@H](Cc2ccc3ccccc3c2)C(=O)NCC(=O)N[C@H](Cc2ccc(O)cc2)C(=O)N1CCCCN` [ya(But)RNalG, cyclo(-D-Tyr-(α-4-aminobutyl)-D-Ala-R-Nal-G)] (cyclo([2Nal]G[dY][X11]R)) showed a concentration for half-maximal inhibition (IC50) of 0.9 ± 0.1 nM.

Take `C[C@@H]1C(=O)N[C@@H](CCCNC(=N)N)C(=O)N[C@@H](Cc2ccc3ccccc3c2)C(=O)NCC(=O)N[C@H](Cc2ccc(O)cc2)C(=O)N1CCCCCCCNC(=O)c1ccc(F)cc1` [ya(Hept,FBz)RNalG, cyclo(-D-Tyr-(α-7-aminoheptyl, 4-fluorobenzoic acid)-D-Ala-R-Nal-G)] (cyclo([dY][X6]R[2Nal]G)): the IC50 was determined as 16.5 ± 3.1 nM. Consider `C[C@@H]1C(=O)N[C@@H](CCCNC(=N)N)C(=O)N[C@@H](Cc2ccc3ccccc3c2)C(=O)NCC(=O)N[C@H](Cc2ccc(O)cc2)C(=O)N1CCCCCN` [ya(Pent)RNalG, cyclo(-D-Tyr-(α-5-aminopentyl)-D-Ala-R-Nal-G)] (cyclo([2Nal]G[dY][X13]R)), for which the IC50 was found to be 1.6 ± 0.3 nM. Turning to `C[C@@H]1C(=O)N[C@@H](CCCNC(=N)N)C(=O)N[C@@H](Cc2ccc3ccccc3c2)C(=O)NCC(=O)N[C@H](Cc2ccc(O)cc2)C(=O)N1CCCCNC(=O)c1ccc(F)cc1` [ya(But,FBz)RNalG, cyclo(-D-Tyr-(α-4-aminobutyl, 4-fluorobenzoic acid)-D-Ala-R-Nal-G)] (cyclo([2Nal]G[dY][X9]R)), the IC50 amounted to 26 ± 5.7 nM.

The same test, now with this note: tracer cyclo(-D-Tyr^1 [^125I]-Arg^2-Arg^3-Nal^4-Gly^5), 2 h at room temperature, dimers.
`C[C@@H]1C(=O)N[C@@H](CCCNC(=N)N)C(=O)N[C@@H](Cc2ccc3ccccc3c2)C(=O)NCC(=O)N[C@H](Cc2ccc(O)cc2)C(=O)N1CCCCCCNC(=O)CCCCCCC(=O)NCCCCCCN1C(=O)[C@@H](Cc2ccc(O)cc2)NC(=O)CNC(=O)[C@H](Cc2ccc3ccccc3c2)NC(=O)[C@H](CCCNC(=N)N)NC(=O)[C@H]1C` [Dimer 8, ya(Hex)RNalG octan-1,8-diacid dimer] (I: cyclo([2Nal]G[dY][X3]R) / II: cyclo([2Nal]G[dY][X3]R); linker I:4-II:4 via Suberoyl) had an IC50 of 15.9 ± 10.6 nM. As for `C[C@@H]1C(=O)N[C@@H](CCCNC(=N)N)C(=O)N[C@@H](Cc2ccc3ccccc3c2)C(=O)NCC(=O)N[C@H](Cc2ccc(O)cc2)C(=O)N1CCCCCCNC(=O)CCC(=O)NCCCCCCN1C(=O)[C@@H](Cc2ccc(O)cc2)NC(=O)CNC(=O)[C@H](Cc2ccc3ccccc3c2)NC(=O)[C@H](CCCNC(=N)N)NC(=O)[C@H]1C` [Dimer 4, ya(Hex)RNalG butan-1,4-diacid dimer] (I: cyclo([2Nal]G[dY][X3]R) / II: cyclo([2Nal]G[dY][X3]R); linker I:4-II:4 via Suc), the IC50 came to 5.5 ± 1.4 nM.

Molecule `C[C@@H]1C(=O)N[C@@H](CCCNC(=N)N)C(=O)N[C@@H](Cc2ccc3ccccc3c2)C(=O)NCC(=O)N[C@H](Cc2ccc(O)cc2)C(=O)N1CCCCCCNC(=O)CCCCC(=O)NCCCCCCN1C(=O)[C@@H](Cc2ccc(O)cc2)NC(=O)CNC(=O)[C@H](Cc2ccc3ccccc3c2)NC(=O)[C@H](CCCNC(=N)N)NC(=O)[C@H]1C` [Dimer 6, ya(Hex)RNalG hexan-1,6-diacid dimer] (I: cyclo([2Nal]G[dY][X3]R) / II: cyclo([2Nal]G[dY][X3]R); linker I:4-II:4 via Adipoyl) came in with an IC50 of 7.8 ± 3.1 nM.
